Earlier results, collected in patent US10117939B2, “Pharmaceutical compositions comprising nebivolol or a nebivolol analogue” (MYLAN PHARMACEUTICALS ULC, priority 2007, dated 2018).

Conditions: as described in EP 0 744 946

Structure (SMILES)	Dissolution (in words)
Cl.O[C@H](CNC[C@@H](O)[C@H]1CCc2cc(F)ccc2O1)[C@@H]1CCc2cc(F)ccc2O1 (relative stereo) [nebivolol hydrochloride, ((±))-(R*(S*(S*—(S*))))-(alpha),(alpha)′-(iminobis(methylene)bis-(6-fluoro-3,4-dihydro-2H-1-benzopyran-2-methanol)]	poor dissolution
Cl.O[C@H](CNC[C@@H](O)[C@H]1CCc2cc(F)ccc2O1)[C@@H]1CCc2cc(F)ccc2O1 [“micronized” nebivolol hydrochloride]	even worse than material in the normal crystalline form
